Test results published in patent US11717500B2, “Treatment of spondyloarthritis” (PHARMACYL AB, priority 2020, dated 2023).
Where a name gives a salt, the structure may show the parent alone. Read-outs that look alike come from different tables or passages of the source.

Legend:
[1] = system: LPS-induced TNF-α production in RAW264.7 murine macrophage cells; experiment: Suppression of LPS-induced TNF-α production in RAW264.7 macrophages (ELISA); assay type: cell-based; conditions: Mus musculus
From the text: Macrophages serve a critical role in the initiation and propagation of inflammatory responses by releasing proinflammatory mediators, such as TNF-α. Lipopolysaccharide (LPS) is a potent initiator of an inflammatory response. During LPS stimulation, NF-κB signaling is activated to regulate the transcription of numerous genes involved in immunity and inflammation to produce proinflammatory cytokines, such as TNF-α. Suppression of LPS-induced TNF-α production in RAW264.7 macrophages treated with AABZ was investigated by evaluation of the generation of TNF-α.
The RAW264.7 macrophage line was maintained in DMEM supplemented with 5% FBS at 37° C. in a 5% CO2-humidified air environment. The RAW264.7 cells were seeded in 96-well plates at a density of 1×10^5/ml and a volume of 200 μl/well. The cells were incubated for 24 h in medium supplemented with 10% FBS and were then pre-incubated with or without the indicated concentrations of test substances for 2 h prior to the addition of LPS (1 μg/ml). The supernatants were subsequently harvested at various time points and production of the proinflammatory cytokine TNF-α in the culture medium was determined using a commercially available enzyme-linked immunosorbent assay (ELISA) kit according to the manufacturer's protocol.
Effects of some AABZs of the invention at 1 mM on LPS-induced TNF-production in RAW264.7 murine macrophage cells are shown in Table 2.

dopamine D2 receptor = dopamine D2 receptor (Homo sapiens (Human), UniProt P14416); experiment: Dopamine D2 receptor affinity, in vitro radioligand binding with 125I-spiperone; conditions: 125I-spiperone as radioactive ligand
From the text: It is well-known that drug compounds that have an affinity for the striatal dopamine D2 may give rise to adverse side effects, such as short-term extrapyramidal disorders and tardive dyskinesia.

NF-κB = conditions: T cells; cited from earlier work
NFAT = conditions: T cells; cited from earlier work
AP-1 = conditions: T cells; cited from earlier work
IκBβ = conditions: cited from earlier work
[2] = RAW264.7, read-out: % Inhibition of TNF-production

dopamine D2 receptor, sequence (P14416 whole entry, species assumed): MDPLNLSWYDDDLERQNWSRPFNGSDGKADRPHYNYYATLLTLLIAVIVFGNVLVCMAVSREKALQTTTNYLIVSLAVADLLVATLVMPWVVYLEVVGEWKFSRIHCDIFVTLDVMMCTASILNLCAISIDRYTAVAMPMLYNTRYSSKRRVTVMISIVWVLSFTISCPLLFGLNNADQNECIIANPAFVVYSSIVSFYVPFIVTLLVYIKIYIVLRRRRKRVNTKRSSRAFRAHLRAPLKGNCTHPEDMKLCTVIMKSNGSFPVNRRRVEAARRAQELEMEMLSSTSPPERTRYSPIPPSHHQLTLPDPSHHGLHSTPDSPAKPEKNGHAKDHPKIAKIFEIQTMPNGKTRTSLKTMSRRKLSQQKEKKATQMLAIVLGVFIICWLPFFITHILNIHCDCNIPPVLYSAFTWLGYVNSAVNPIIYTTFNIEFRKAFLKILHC

| Structure (SMILES) | inhibition at 1000 µM [1, 2] [%] | IC50 (dopamine D2 receptor) [µM] | other results |
| --- | --- | --- | --- |
| CCC(=O)Nc1ccc(C(=O)NCCN(CC)CC)cc1Cl [4-Propanoylamino-3-chloro-N-[2-(diethylamino)ethyl]benzamide hydrochloride] | 50 |  |  |
| CCN(CC)CCNC(=O)c1ccc(N)c(Cl)c1 [Declopramide, declopramide] |  | 38.6 |  |
| CCN(CC)CCNC(=O)c1ccc(NC(C)=O)cc1 [4-Acetamido-N-[2-(diethylamino)ethyl]benzamide hydrochloride] |  |  | inhibition at 1000 µM ([1]; 1 mM, LPS 1 μg/ml, RAW264.7 murine macrophage cells, read-out: % Inhibition of TNF-production): 56% |
| CCN(CC)CCNC(=O)c1ccc(NC(=O)C(C)C)c(Cl)c1 [4-Isobutyrylamino-3-chloro-N-[2-(diethylamino)ethyl]benzamide hydrochloride] | 63 |  |  |
| CCN(CC)CCNC(=O)c1ccc(NC(C)=O)c(Cl)c1 [Cpd A, 4-Acetamido-3-chloro-N-[2-(diethylamino)ethyl]benzamide hydrochloride] | 45 | 975 | effect on NF-κB activity (NF-κB): inhibit activities; effect on NFAT activity (NFAT): inhibit activities; effect on AP-1 activity (AP-1): induce AP-1 activity; effect on breakdown of IκBβ (IκBβ): inhibit breakdown |
